These results are taken from paper PMC2662861, “An unexpected phosphate binding site in Glyceraldehyde 3-Phosphate Dehydrogenase: Crystal structures of apo, holo and ternary complex of Cryptosporidium parvum enzyme” (BMC Structural Biology, 2009).

The structures appear in SMILES notation.

This experiment concerns the target T1, CpGAPDH (Cryptosporidium parvum glyceraldehyde 3-phosphate dehydrogenase) (Cryptosporidium parvum, UniProt Q7YYQ9).
T1 construct: gene cgd6_3790; recombinant, N-terminal hexa-histidine tag kept, expressed in E. coli; homotetramer
Put plainly: X-ray crystal structure, […] Å, co-crystallized. The format is binding. Particulars: holoenzyme; 2 mM NAD; pH 7.5; NAD in all four subunits.

T1 sequence (Q7YYQ9 1-339): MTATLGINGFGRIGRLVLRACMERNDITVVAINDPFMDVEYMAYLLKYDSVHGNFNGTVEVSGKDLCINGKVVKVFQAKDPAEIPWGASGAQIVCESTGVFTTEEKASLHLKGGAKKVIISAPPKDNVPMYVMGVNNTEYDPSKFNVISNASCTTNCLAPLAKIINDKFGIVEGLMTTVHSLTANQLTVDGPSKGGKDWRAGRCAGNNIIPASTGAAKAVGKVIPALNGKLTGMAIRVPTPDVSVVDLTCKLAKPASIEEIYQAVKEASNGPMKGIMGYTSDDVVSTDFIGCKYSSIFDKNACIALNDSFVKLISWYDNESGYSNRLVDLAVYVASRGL

As for `NC(=O)c1ccc[n+]([C@@H]2O[C@H](COP(=O)(O)OP(=O)(O)OC[C@H]3O[C@@H](n4cnc5c(N)ncnc54)[C@H](O)[C@@H]3O)[C@@H](O)[C@H]2O)c1` [NAD], the “X-ray crystal structure, 2.0 Å, co-crystallized” value was “The holoenzyme form of CpGAPDH contains one NAD molecule in each subunit”.
